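Cells were grown in 96-well plates and exposed to each compound for 48 hours at five concentrations; endpoints were interpolated linearly between bracketing concentrations, or set to the highest concentration if not reached. At the GI50, growth is halved. TGI marks complete inhibition of growth.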
What was measured:
Test in all cases: NCI-60 cell line screen, 48 h
MALME-3M melanoma = tested on: MALME-3M melanoma
SNB-19 CNS = tested on: SNB-19 CNS
SF-268 CNS = tested on: SF-268 CNS
OVCAR-5 ovarian = tested on: OVCAR-5 ovarian
MOLT-4 leukemia = tested on: MOLT-4 leukemia
M14 melanoma = tested on: M14 melanoma
NCI-H23 lung = tested on: NCI-H23 lung
TK-10 renal = tested on: TK-10 renal
PC-3 prostate = tested on: PC-3 prostate
A549 NSCLC = tested on: A549 NSCLC
MCF7 breast = tested on: MCF7 breast
HCC-2998 colon = tested on: HCC-2998 colon
SK-MEL-2 melanoma = tested on: SK-MEL-2 melanoma
CCRF-CEM leukemia = tested on: CCRF-CEM leukemia
T-47D breast = tested on: T-47D breast
MDA-MB-231 breast = tested on: MDA-MB-231 breast
LOX IMVI melanoma = tested on: LOX IMVI melanoma
RPMI-8226 leukemia = tested on: RPMI-8226 leukemia
K-562 leukemia = tested on: K-562 leukemia
U251 CNS = tested on: U251 CNS
KM12 colon = tested on: KM12 colon
HCT-15 colon = tested on: HCT-15 colon
UACC-257 melanoma = tested on: UACC-257 melanoma
SF-295 CNS = tested on: SF-295 CNS
HS 578T breast = tested on: HS 578T breast
HOP-92 NSCLC = tested on: HOP-92 NSCLC
HCT-116 colon = tested on: HCT-116 colon
OVCAR-3 ovarian = tested on: OVCAR-3 ovarian
DU-145 prostate = tested on: DU-145 prostate
RXF 393 renal = tested on: RXF 393 renal
SK-MEL-28 melanoma = tested on: SK-MEL-28 melanoma
OVCAR-4 ovarian = tested on: OVCAR-4 ovarian
CAKI-1 renal = tested on: CAKI-1 renal
NCI-H226 lung = tested on: NCI-H226 lung
MDA-MB-435 = tested on: MDA-MB-435
NCI/ADR-RES ovarian = tested on: NCI/ADR-RES ovarian
SNB-75 CNS = tested on: SNB-75 CNS
HOP-62 NSCLC = tested on: HOP-62 NSCLC
SW-620 colon = tested on: SW-620 colon
ACHN renal = tested on: ACHN renal
EKVX NSCLC = tested on: EKVX NSCLC
HT29 colon = tested on: HT29 colon
NCI-H522 lung = tested on: NCI-H522 lung
UO-31 renal = tested on: UO-31 renal
IGROV1 ovarian = tested on: IGROV1 ovarian
COLO 205 colon = tested on: COLO 205 colon
HL-60(TB) leukemia = tested on: HL-60(TB) leukemia
UACC-62 melanoma = tested on: UACC-62 melanoma
NCI-H460 lung = tested on: NCI-H460 lung
A498 renal = tested on: A498 renal
BT-549 breast = tested on: BT-549 breast
SR leukemia = tested on: SR leukemia
OVCAR-8 ovarian = tested on: OVCAR-8 ovarian
786-0 renal = tested on: 786-0 renal
SK-OV-3 ovarian = tested on: SK-OV-3 ovarian
SN12C renal = tested on: SN12C renal

COc1ccc(CNS(=O)(=O)/N=C2\NC(=O)NC2=C(Cl)Cl)cc1
GI50 (MALME-3M melanoma): 5.62 µM
TGI (MALME-3M melanoma): 22.7 µM
GI50 (SNB-19 CNS): 1.14 µM
TGI (SNB-19 CNS): > 100 µM
GI50 (SF-268 CNS): 0.541 µM
TGI (SF-268 CNS): > 100 µM
GI50 (OVCAR-5 ovarian): 3.23 µM
TGI (OVCAR-5 ovarian): > 100 µM
GI50 (MOLT-4 leukemia): 0.435 µM
TGI (MOLT-4 leukemia): 59.2 µM
GI50 (M14 melanoma): 3.02 µM
TGI (M14 melanoma): > 100 µM
GI50 (NCI-H23 lung): 3.8 µM
TGI (NCI-H23 lung): 17.7 µM
GI50 (TK-10 renal): 6.55 µM
TGI (TK-10 renal): > 100 µM
GI50 (PC-3 prostate): 2.61 µM
TGI (PC-3 prostate): > 100 µM
GI50 (A549 NSCLC): 3.48 µM
TGI (A549 NSCLC): > 100 µM
GI50 (MCF7 breast): 0.348 µM
TGI (MCF7 breast): > 100 µM
GI50 (HCC-2998 colon): 3.2 µM
TGI (HCC-2998 colon): 10.4 µM
GI50 (SK-MEL-2 melanoma): 6.27 µM
TGI (SK-MEL-2 melanoma): 42.8 µM
GI50 (CCRF-CEM leukemia): 0.364 µM
TGI (CCRF-CEM leukemia): 16.2 µM
GI50 (T-47D breast): 2.4 µM
TGI (T-47D breast): > 100 µM
GI50 (MDA-MB-231 breast): 1.92 µM
TGI (MDA-MB-231 breast): 8.31 µM
GI50 (LOX IMVI melanoma): 0.386 µM
TGI (LOX IMVI melanoma): 10.8 µM
GI50 (RPMI-8226 leukemia): 0.352 µM
TGI (RPMI-8226 leukemia): 5.21 µM
GI50 (K-562 leukemia): 1.64 µM
TGI (K-562 leukemia): > 100 µM
GI50 (U251 CNS): 1.7 µM
TGI (U251 CNS): 14.6 µM
GI50 (KM12 colon): 0.327 µM
TGI (KM12 colon): > 100 µM
GI50 (HCT-15 colon): 3.19 µM
TGI (HCT-15 colon): 11.6 µM
GI50 (UACC-257 melanoma): 10.7 µM
TGI (UACC-257 melanoma): 68.6 µM
GI50 (SF-295 CNS): 2.85 µM
TGI (SF-295 CNS): > 100 µM
GI50 (HS 578T breast): 2.09 µM
TGI (HS 578T breast): > 100 µM
GI50 (HOP-92 NSCLC): 0.48 µM
TGI (HOP-92 NSCLC): 10.4 µM
GI50 (HCT-116 colon): 0.531 µM
TGI (HCT-116 colon): > 100 µM
GI50 (OVCAR-3 ovarian): 1.59 µM
TGI (OVCAR-3 ovarian): 17.5 µM
GI50 (DU-145 prostate): 3.22 µM
TGI (DU-145 prostate): > 100 µM
GI50 (RXF 393 renal): 1.71 µM
TGI (RXF 393 renal): 6.79 µM
GI50 (SK-MEL-28 melanoma): 8.08 µM
TGI (SK-MEL-28 melanoma): 22 µM
GI50 (OVCAR-4 ovarian): 4.47 µM
TGI (OVCAR-4 ovarian): > 100 µM
GI50 (CAKI-1 renal): 3.05 µM
TGI (CAKI-1 renal): 73.3 µM
GI50 (NCI-H226 lung): 2.03 µM
TGI (NCI-H226 lung): 5.51 µM
GI50 (MDA-MB-435): 1.36 µM
TGI (MDA-MB-435): 4.33 µM
GI50 (NCI/ADR-RES ovarian): 2.93 µM
TGI (NCI/ADR-RES ovarian): > 100 µM
GI50 (SNB-75 CNS): 1.34 µM
TGI (SNB-75 CNS): > 100 µM
GI50 (HOP-62 NSCLC): 0.621 µM
TGI (HOP-62 NSCLC): > 100 µM
GI50 (SW-620 colon): 2.45 µM
TGI (SW-620 colon): 16.6 µM
GI50 (ACHN renal): 3.59 µM
TGI (ACHN renal): > 100 µM
GI50 (EKVX NSCLC): 4.39 µM
TGI (EKVX NSCLC): > 100 µM
GI50 (HT29 colon): 1.67 µM
TGI (HT29 colon): > 100 µM
GI50 (NCI-H522 lung): 2.07 µM
TGI (NCI-H522 lung): 14.2 µM
GI50 (UO-31 renal): 5.13 µM
TGI (UO-31 renal): > 100 µM
GI50 (IGROV1 ovarian): 3.3 µM
TGI (IGROV1 ovarian): 22 µM
GI50 (COLO 205 colon): 2.21 µM
TGI (COLO 205 colon): 5.1 µM
GI50 (HL-60(TB) leukemia): 0.756 µM
TGI (HL-60(TB) leukemia): 5.64 µM
GI50 (UACC-62 melanoma): 2.89 µM
TGI (UACC-62 melanoma): 18.2 µM
GI50 (NCI-H460 lung): 2.82 µM
TGI (NCI-H460 lung): > 100 µM
GI50 (A498 renal): 1.22 µM
TGI (A498 renal): 5.39 µM
GI50 (BT-549 breast): 0.981 µM
TGI (BT-549 breast): 12.2 µM
GI50 (SR leukemia): 2.86 µM
TGI (SR leukemia): 22.8 µM
GI50 (OVCAR-8 ovarian): 3.38 µM
TGI (OVCAR-8 ovarian): > 100 µM
GI50 (786-0 renal): 1.88 µM
TGI (786-0 renal): > 100 µM
GI50 (SK-OV-3 ovarian): 8.22 µM
TGI (SK-OV-3 ovarian): > 100 µM
GI50 (SN12C renal): 0.811 µM
TGI (SN12C renal): > 100 µM
